Laboratory results as given in patent publication US8367801B2, “Proteinaceous compounds” (Endocrine Pharmaceuticals Limited, priority 2008, dated 2013).
Ends that are not written are not given here.

Assays:
[1] = tested on: adult rat bone marrow stem cells; experiment: Adult rat bone marrow stem cells in culture, cell numbers by time-lapse video over 24 h; assay type: cell-based
Experimental: Polyclonal antibodies were raised in the same manner using goats instead of rabbits, with Peptide 2 conjugated to KLH. The primary immunisation was followed by 8 boosters at monthly intervals, using standard techniques for the raising of polyclonal antibodies. Titre was established via immunohistochemistry, using rat and ovine median eminence tissue and the ability to block antibody with Peptide 1 was determined on histological sections. Specificity was tested using a range of hypothalamic peptides. […] 9, which consists of KVKEFNNI (SEQ ID NO. 21). Purification of the antibody using the peptide SEQ ID NO: 9 immobilised on a column enriches for antibody to the C-terminal epitope. The goat antibody has been used in connection with an assay based on adult rat bone marrow stem cells in culture, with α-MEMS as cell medium and manual assessments of cell numbers and morphology using time-lapse video photography over 24 h.
(§1) Micrin activity has been determined by means of a suitable in vitro assay, for example the breast cancer cell viability assay described above in Section 4 with reference to FIG. 4. A useful assay in support of molecular optimisation involves adult rat bone marrow stem cells in culture, with α-MEMS as cell medium and manual assessments of cell numbers and morphology using time-lapse video photography over 24 h. In one study, untreated control cells increased in number by 50%. An increase of just under 20% was also seen with the 14 mer peptide SEQ ID NO: 9, administered at 10 μg/ml of medium.

ovine pituitary cells [2] = experiment: Prolactin production by pituitary cells in vitro, RIA; assay type: cell-based
Experimental: Adult ewe pituitaries were collected into phosphate buffered saline (PBS) on ice. The external dura and neurohypophyseal tissue were removed and the remaining tissue was sliced thinly using tweezers and scalpel, and minced using crossed scalpel blades (<1 mm pieces). The mince was washed in 0.1% bovine serum albumen (BSA)/PBS. The tissue was allowed to settle and the liquid aspirated. The washing, settling and aspiration were repeated.
A standard cell dispersion was conducted by adding the tissue to a filtered solution of collagenase in BSA/PBS (0.02-0.03 g in 10 ml) plus Dnase, hyaluronidase, pancreatin and trypsin inhibitor and incubating in a shaking waterbath at 37° C. for 25 minutes. The resultant suspension was titurated with a pipette and returned to the shaking waterbath for 5 minutes. The suspension was titurated again and filtered through a mesh, washing with BSA/PBS. The suspension was added to a 50 ml centrifuge tube and spun at 1500 rpm for 5 minutes. The supernatant was removed and the cell pellet resuspended in 50 ml BSA/PBS.
A sample of the cell suspension (50 μl) was mixed 1:1 with trypan blue in a microcentrifuge tube and viable cells were counted on a haemocytometer, to give viable cell concentration.
The cell suspension was recentrifuged and resuspended in 3-5 ml of M199. […]

ovine pituitary cells [3] = experiment: LH secretion by pituitary cells in vitro; assay type: cell-based; conditions: 24 h, 0.1-10 μg/L, dose dependent, vs scrambled peptide, data not shown
Experimental: Both effects are dependent on dose across the range used, 0.1-10 μg/L, and are statistically significant. Comparison was with a control peptide having the same amino acids in a randomly scrambled sequence (data not shown)

Caenorhabditis elegans [4] = assay type: in vivo; conditions: for effect on lifespan / increase in fecundity (number of offspring): 1 μM in aqueous medium each day; for increase in fecundity (number of offspring): over lifespan
From the text: (For methodology see Davies, K. G & Hart, J. E, Nematology, 10, 103-112, 2008).
The first six amino acids of the micrin peptide fragment of SEQ ID NO: 9 are MKPLTG (SEQ ID NO: 26). These have been synthesized as a 6 mer. […] Thus the fecundity-enhancing effect is retained even if 8 of the 14 amino acids are removed, potentially identifying an active motif. To optimise this 6 mer further, amino acid substitutions have been made, while retaining the proline at position 3.

[5] = tested on: compensatory renal growth; conditions: procedures as in 7c; Haylor et al 2009; cited from earlier work
[6] = tested on: human umbilical vascular endothelial cells (HUVECs); experiment: AngioKit angiogenesis assay, venule length; assay type: cell-based; conditions: FIG. 6; suramin 20 μM; micrin sample T2
Experimental: Micrin and micrin free control samples were produced using the method described in Example 7.a with 120 ml sheep follicular fluid as the source material. These were diluted in AngioKit medium and stored at 4° C. for the duration of the assay. Samples were tested as follows: • 1) untreated control—medium alone • 2) positive control—medium containing 2 ng/ml VEGF • 3) negative control—medium containing 20 μM suramin (a potent inhibitor of angiogenesis) • 4) micrin-free control • 5) micrin test material
Comparison of venule length was conducted using the ‘Angiosys’ image analysis system developed specifically for the analysis of images produced using the AngioKit. Four images were taken from predetermined positions in the well containing each specimen. The results obtained with micrin are marked T2, those with micrin-free control T1.

human dental pulp cells = experiment: Dental pulp cell proliferation (Cyquant); assay type: cell-based; conditions: for anti-proliferative activity: 5 μM in the cell medium, seeding 5.0×10^3 cells/ml
[7] = tested on: human bone marrow stem cells; experiment: Human bone marrow stem cell proliferation in vitro; assay type: cell-based; conditions: 1 μM in the medium, 24 h
Experimental: as §1
To investigate the stop growing aspect of the hypothesized micrin puberty signal, the proline-containing 6 mers have been administered to human bone marrow stem cells in an in vitro assay (see 6a), at a concentration in the medium of 1 μM.

[8] = tested on: MCF 7 human breast cancer cells; experiment: IGF1-stimulated cell growth, Coulter counter; assay type: cell-based; conditions: IGF1 50 ng/ml, 72 hours
Experimental: Experiments were conducted to assess the effects of a range of doses of the micrin peptide fragment with 20 amino acids (SEQ ID NO: 19) on the IGF1-stimulated growth of MCF 7 human breast cancer cells. Cells were plated at 2×10^4 per well in 2 cm^2 wells in Dulbecco's Modified Eagle's Medium containing 10% foetal calf serum, antibiotics and a stabilised substitute for glutamine (Glutamax, InVitrogen, UK). After an overnight culture period, the cells were washed with fresh medium and this was replaced with medium containing IGF1 (50 ng/ml) in the presence and absence of a range of concentrations (between 0.04 and 4000 nmol) of the peptide fragment in triplicate wells, and compared to triplicate wells containing medium only (with no supplementary IGF1) as controls. The cells were incubated for 72 hours in a humidified atmosphere at 37° C. under 5% carbon dioxide/95% air. The medium was discarded, and the cell layer washed with buffered saline before being incubated with trypsin/EDTA to dislodge the cells. The cell suspension was diluted with medium to stop the tryptic action and then transferred to tubes and subjected to centrifugation. The pellet was resuspended in Isoton and samples counted with a Coulter counter.

Caenorhabditis elegans [9] = conditions: Davies & Hart, Nematology 2008; cited from earlier work

MKPLTGKVKEFNNI [SEQ ID NO: 9]
increase in cell number ([1]; 10 μg/ml of medium, 24 h, untreated control cells increased by 50%): under 20% | effect of co-administration on the antibody's reduction of the negative influence ([1]; with goat antibody and rat hypothalamus extract): reversed by co-administration | prolactin level in medium (ovine pituitary cells [2]; Experiment 1: 1 ng/well, 24 hours, n=4, control 92.2±13.9): 67.1 ± 12.6 ng/mL | prolactin level in medium (ovine pituitary cells [2]; Experiment 2: 1 μg/ml, 2 hours, control 8.30±1.16, p<0.05): 5.18 ± 1.52 ng/mL | LH production (ovine pituitary cells [3]; cells provided with GnRH, GHRH and TRH): reduction in LH production | LH secretion (ovine pituitary cells [3]; hypothalamic regulators omitted): increase the secretion of LH | effect on lifespan (Caenorhabditis elegans [4]): increased by about a fifth | increase in fecundity (number of offspring) (Caenorhabditis elegans [4]): > 40% | effect on compensatory renal growth [5]: inhibits compensatory renal growth

fluorescently tagged version of the micrin peptide fragment: fluorescently tagged version of the micrin peptide fragment SEQ ID NO: 9 (MKPLTGKVKEFNNI; also: fluorescent tag, position not given here)
tissue accumulation (Caenorhabditis elegans [4]; in vivo): accumulate preferentially in genital tissue

Cc1ccc(C(=O)Nc2ccc(S(=O)(=O)O)c3cc(S(=O)(=O)O)cc(S(=O)(=O)O)c23)cc1NC(=O)c1cccc(NC(=O)Nc2cccc(C(=O)Nc3cc(C(=O)Nc4ccc(S(=O)(=O)O)c5cc(S(=O)(=O)O)cc(S(=O)(=O)O)c45)ccc3C)c2)c1 [Suramin, suramin]
HUVEC venule length [6]: statistically significant decrease in HUVEC venule length

1KPLTGKVKEFNNI [SEQ ID NO:1, 14 mer wherein 1 is S, D or M]
anti-proliferative activity (human dental pulp cells): more so

IEPVFT
effect on lifespan (Caenorhabditis elegans [4]): without having a significant effect on lifespan | increase in fecundity (number of offspring) (Caenorhabditis elegans [4]): 79% | ascending order of anti-proliferative activity [7]: IEPVFT (SEQ ID NO: 30)<MKPLTG (SEQ ID NO. 26)<LEPVMT (SEQ ID NO: 31)<LQPAHV (SEQ ID NO: 27)

MKPLTGKVKEFNNIKGFGVI [SEQ ID NO: 19]
reduction in cell numbers ([1]; 24 h, due to apoptosis): about 80% | cell count compared to IGF1 alone ([8]; 0.04 nmol peptide): noticably decreases the cell count | cell count compared to controls ([8]; 40 nmol peptide): reduces the cell count to below that in the controls | effect on IGF1-stimulated cell growth ([8]; 0.04-4000 nmol, FIG. 7): suppresses the effect of IGF1 in a dose-dependent manner

KLKMNGKN (SEQ ID NO: 29) to the N-terminus of IEPVFT: IEPVFT with KLKMNGKN added to its N-terminus (KLKMNGKNIEPVFT)
effect on fecundity (Caenorhabditis elegans [9]): anti-fecundity agent

LEPVMT
ascending order of anti-proliferative activity [7]: IEPVFT (SEQ ID NO: 30)<MKPLTG (SEQ ID NO. 26)<LEPVMT (SEQ ID NO: 31)<LQPAHV (SEQ ID NO: 27)

LQPAHV
effect on lifespan (Caenorhabditis elegans [4]): significantly to prolong lifespan | increase in fecundity (number of offspring) (Caenorhabditis elegans [4]): 71% | ascending order of anti-proliferative activity [7]: IEPVFT (SEQ ID NO: 30)<MKPLTG (SEQ ID NO. 26)<LEPVMT (SEQ ID NO: 31)<LQPAHV (SEQ ID NO: 27) | reduction of cell numbers [7]: about 32%

KVKEFNNI
anti-proliferative activity (human dental pulp cells): most anti-proliferative of all | reduction of cell numbers (human dental pulp cells; 5 μM, over 7 days): about 17%

MKPLTG
effect on lifespan (Caenorhabditis elegans [4]): without altering lifespan | increase in fecundity (number of offspring) (Caenorhabditis elegans [4]): 50% | ascending order of anti-proliferative activity [7]: IEPVFT (SEQ ID NO: 30)<MKPLTG (SEQ ID NO. 26)<LEPVMT (SEQ ID NO: 31)<LQPAHV (SEQ ID NO: 27) | anti-proliferative activity (human dental pulp cells): minimally anti-proliferative
